Holding throughout (assay): NCI anticancer screen, dose series, 48 h
The test system of test [1] is UACC-62 melanoma.
For test [2], the system named is M14 melanoma.
Test [3] deals with NCI-H460 lung.
In test [4] the test system is NCI/ADR-RES ovarian.
Test [5] deals with NCI-H522 lung.
Test [6] concerns UACC-257 melanoma.
The test system of test [7] is MDA-MB-231 breast.
Test [8] has as its system SK-MEL-5 melanoma.
Test [9] concerns EKVX NSCLC.
Test [10] has as its system SR leukemia.

“And” between values parts separate entries of the source, which are not always exact repeats. Equal values may be shown once.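 A five-concentration, 48-hour dose response in 96-well plates underlies each endpoint, interpolated linearly between surrounding concentrations. GI50: concentration for 50% inhibition of growth. At the TGI there is no net growth.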

As for `Cn1nccc1Nc1nccc(-c2ccn([C@H](CO)c3ccc(Cl)c(F)c3)c(=O)c2)n1`, the GI50 in test [1] was 0.0922 µM; in test [2] it was 0.0871 µM; in test [3], 38.4 µM; in [4], above 100 µM; in [5], 13.1 µM; in [6] it was 0.158 µM. Moreover, the GI50 is 5.96 µM in test [7], 12.5 µM in test [8], 22.8 µM in [9] and 25.1 µM in test [10]. Besides, the TGI in test [1] was above 59.3 µM; in test [2] it was above 72.2 µM; in [3], above 100 µM; in test [4], above 100 µM; in test [5], above 51.9 µM; in test [6], above 100 µM. The TGI in [7] is above 100 µM; in [8], 43.3 µM; in test [9], above 100 µM; in test [10], above 100 µM.
Consider `CN(C)CCCC1(c2ccc(F)cc2)OCc2cc(-c3cccc4[nH]ccc34)ccc21` (configuration not stated), for which the GI50 is 1.76 µM in test [1]; 1.66 µM in test [2]; 1.89 µM in [3]; 1.72 µM in [4]; 1.59 µM in test [5]; 1.7 µM in test [6]. Besides, the GI50 in test [7] was 1.49 µM; in test [8], 1.75 µM; in [9] it was 1.78 µM; in test [10], 0.973 µM. The TGI stood at 3.23 µM in test [1]; 3.33 µM in test [2]; 3.63 µM in test [3]; 3.38 µM in [4]; 3.22 µM in test [5]; 3.18 µM in test [6]. Moreover, the TGI in [7] was 2.9 µM; in test [8] it was 3.17 µM; in test [9] it was 3.3 µM; in test [10] it was 2.97 µM.
Take `COc1cc2c(N3CCN(C(=O)Nc4ccc(OC(C)C)cc4)CC3)ncnc2cc1OCCCN1CCCCC1`: the GI50 in test [1] is 15.8 µM; in test [2], 16.2 µM; in test [3], 18.4 µM; in test [4], 53.1 µM; in [5], 16.6 µM; in test [6] it was 10.3 µM. Moreover, the GI50 in test [7] was 14.4 µM; in test [8], 13.2 µM; in test [9] it was 28.9 µM; in test [10], 9.55 µM. Besides, the TGI is 31 µM in test [1]; 32.6 µM in test [2]; above 61.3 µM in test [3]; above 100 µM in [4]; 36.1 µM in test [5]; 23.6 µM in [6]. The TGI is 32.4 µM in test [7], 26 µM in [8], above 100 µM in [9] and 46.2 µM in test [10].
Turning to `CC1(C)OC[C@@H]([C@@]2(CO[Si](c3ccccc3)(c3ccccc3)C(C)(C)C)CC=CC(=O)O2)O1`, the GI50 in test [1] is 5.79 µM; in test [2] it was 8.52 µM; in [3], 5.16 µM; in test [4] it was 5.64 µM; in test [5] it was 5.02 µM; in test [6] it was 3.3 µM. Also, the GI50 in test [7] was 20.6 µM; in test [8] it was 4.65 µM; in [9] it was 12.1 µM; in test [10], 4.1 µM. Moreover, the TGI in test [1] is 84.5 µM; in [2], 60.5 µM; in test [3], above 100 µM; in [4] it was 35.1 µM; in test [5], above 100 µM; in test [6], 9.95 µM. Also, the TGI is above 100 µM in test [7], 19.4 µM in test [8], 37.8 µM in [9] and 16.6 µM in [10].
For the compound `COc1cc(CNc2nc3cc(N)cc(N)c3nc2-c2ccccc2)cc(OC)c1`, the GI50 in test [1] was 5.31 µM; in test [2], 10.1 µM; in test [3], 10.5 µM; in test [4], 5.47 µM; in [5] it was 2.88 µM; in test [7], 2.08 µM. The GI50 in [8] is 13 µM; in [9], 2.8 µM; in test [10] it was 3.84 µM. The TGI in test [1] is 30.7 µM; in test [2], 49.3 µM; in test [3] it was above 100 µM; in [4], 33.2 µM; in [5] it was 23 µM; in test [6] it was above 100 µM. Besides, the TGI in test [7] is 6.09 µM; in [8] it was 41.7 µM; in test [9] it was 8.91 µM; in test [10] it was above 100 µM.
For the compound `Nc1ncnc2c1N=C(c1ccc3c(c1)OCO3)CC(c1ccc(Cl)cc1)N2` (configuration not stated), the GI50 in test [1] is 72.1 µM; in test [2] it was 25.5 µM; in test [3], 21.8 µM; in [4] it was 5.35 µM; in test [5] it was 2.37 µM; in test [6] it was above 100 µM. In addition, the GI50 was 27 µM in test [7], 85.1 µM in [8], 40.6 µM in test [9] and above 100 µM in test [10]. Also, the TGI was above 100 µM in test [1]; above 100 µM in test [2]; above 100 µM in [3]; 41.2 µM in [4]; above 100 µM in [5]; above 100 µM in test [6]. Besides, the TGI in test [7], in test [8], in test [9] and in [10] was above 100 µM throughout.
On to `c1ccc(-c2[nH]ncc2-c2ccnc(-c3ccc(OCCn4ccnc4)cc3)c2)nc1`, for which the GI50 in test [1], in test [2], in [3], in test [4], in [5] and in [6] was above 25 µM in each case. Further, the GI50 in [7] was above 25 µM; in [8], 8.1 µM; in test [9] it was above 25 µM; in test [10], above 25 µM. For the same compound, the TGI in test [1], in test [2], in [3], in test [4], in test [5] and in [6] was above 25 µM throughout. Besides, the TGI in [7], in [8], in test [9] and in [10] was above 25 µM throughout.
On to `CC1=C(C(=O)Nc2ccccc2)C(c2ccc(N(C)C)cc2)C(C(=O)Nc2ccccc2)=C(C)N1`, for which the TGI in test [1] was 23.9 µM; in test [2] it was above 56 µM; in [3] it was above 100 µM; in [4] it was above 100 µM; in [5], 81.2 µM; in test [6] it was above 100 µM. Moreover, the TGI in test [7] was above 100 µM; in test [8], 7.98 µM; in [9] it was above 100 µM; in test [10] it was above 92.8 µM.
For the compound `Cc1ccc(O)cc1Nc1ccnc2ccc(S(C)(=O)=O)cc12`, the GI50 is 0.843 µM in test [1]; 0.939 µM in test [2]; 10.5 µM in test [3]; 15.9 µM in test [4]; 5.08 µM in test [5]; 0.957 µM in [6]. For the same compound, the GI50 was 0.507 µM in test [7], 10.4 µM in test [8], 11.9 µM in test [9] and above 25 µM in test [10]. In addition, the TGI in [1] is 10.4 µM; in test [2], above 21.8 µM; in test [3], above 25 µM; in [4], above 25 µM; in [5] it was above 22.1 µM; in test [6], above 25 µM. Further, the TGI in [7] was 4.68 µM; in test [8], above 25 µM; in [9], above 25 µM; in test [10], above 25 µM.
In the case of `COC1N(C2CC(O)C(CO)O2)C(=O)NC(=O)C1(F)Br` (configuration not stated), the GI50 in [1] was above 50 µM; in test [2], 38.4 µM; in test [3], 1.51 µM; in test [5] it was 22.4 µM; in test [6], 42.8 µM; in test [8] it was 38.2 µM. Moreover, the values for the GI50 in test [9] and in test [10] were 19.9 µM and 25.1 µM, respectively. Moreover, the TGI is above 100 µM in test [1]; 50 µM and > 100 µM in test [2]; 50 µM and > 100 µM in test [3]; above 100 µM in test [4]; 50 µM and > 70 µM in test [5]; 50 µM and > 100 µM in test [6]. Further, the TGI was above 100 µM in test [7]; 50 µM and > 89.7 µM in test [8]; 50 µM and > 100 µM in test [9]; 50 µM and > 100 µM in test [10].
Take `Cc1c(C(=N)C(C#N)C#N)c(=N)oc2c1ccc1ccccc12`: the GI50 in test [1] is 13 µM; in test [2], 23.9 µM; in test [3], 27.2 µM; in [4], 25.2 µM; in test [5], 8 µM; in [6], 28.6 µM. Also, the GI50 is 19.1 µM in test [7], 13.3 µM in test [8], 4.45 µM in test [9] and 7.64 µM in test [10]. The TGI in test [1] is 32.3 µM; in test [2] it was above 100 µM; in test [3] it was above 100 µM; in [4] it was above 100 µM; in test [5], 25.7 µM; in test [6], above 100 µM. In addition, the TGI is above 100 µM in [7], 29.8 µM in test [8], above 100 µM in [9] and above 100 µM in test [10].

The record behind these values is PubChem BioAssay (NCI).
